# Activity calls are given as the source filed them. No rule for the calls is given here.
# Test system: Jurkat NF-kB reporter, TCR-induced, luciferase luminescence
# Assay: T-cell NF-kB luciferase reporter inhibition – Jurkat cells, luminescence, dose response (AID 489035)
row,Structure (SMILES),IC50
1,C=C(C)COc1ccc(-c2[nH]ncc2-c2ccc(OC)c(OC)c2)c(O)c1,13.6 µM
2,COc1ccc2c(C)nc(Nc3nc(-c4ccccc4)cc(=O)[nH]3)nc2c1,> 80 µM (inactive)
3,CCOc1ccc(Br)cc1C1=CC(=O)C[C@H](c2ccc(OC)cc2)C1,> 80 µM (inactive)
4,O=[N+]([O-])c1ccc(-c2nc(C(Cl)Cl)c3ccccc3n2)cc1,1.12 µM
5,Cc1noc(C)c1COc1ccc(C(=O)NNC(=O)c2ccccc2F)cc1,> 80 µM (inactive)
6,O=C(Nc1ccc(F)cc1)c1ccc(CN2CCc3ccccc3C2)cc1,> 80 µM (inactive)
7,COC(=O)c1c(NC(=O)c2ccc([N+](=O)[O-])o2)sc2c1CCN(C(C)C)C2,6.76 µM
8,C=CCNC(=S)N/N=C(\C)c1ccccn1,1.09 µM
9,O=C1C=CC(O)(c2cc(=O)c3c(O)cc(O)cc3o2)C=C1,2.21 µM
10,COc1ccc(CCNc2nnc(Sc3nnnn3-c3ccccc3)s2)cc1OC,10.6 µM
11,CC(C)Nc1ccc(C(CC(N)=O)NC(=O)Cc2ccc(Br)cc2)cc1[N+](=O)[O-] (stereo not given),1.71 µM
12,COc1ccc(/C=N/NC(=O)COc2ccccc2-c2ccccc2)cc1,37.9 µM (inactive)
13,Cc1ccc2nc(C)c(CN3CCN(c4ccc([N+](=O)[O-])cc4Cl)CC3)n2c1,26.6 µM (inactive)
14,Nc1nc(Cl)cc(N2CCC(c3cc(-c4ccc(Cl)cc4)n[nH]3)CC2)n1,1.87 µM
15,O=C(Nc1ccc(N2CCCCC2)cc1)c1ccccn1,0.46 µM
16,COCCn1c(C)cc(C2=NNC(=Nc3ccccc3F)SC2)c1C,64.3 µM (inactive)
17,CCOC(=O)c1[nH]c(C)c(C(=O)OCC(=O)NC(C)c2ccc(F)cc2)c1C (stereo not given),> 80 µM (inactive)
18,CSc1nccc(-c2nn(-c3ccc(C)cc3)ccc2=O)n1,33.3 µM (inactive)
19,O=S(=O)(c1cc(F)ccc1F)N1CCN(c2ncnc3ccccc23)CC1,> 80 µM (inactive)
20,CCN1/C(=C/c2ccc3cc(C)ccc3[n+]2CC)Sc2ccc3sccc3c21,3.1 µM
21,O=C(CNC(=O)c1ccco1)N=Nc1c(O)n(CCc2ccccc2)c2ccccc12,> 80 µM (inactive)
22,O=C1CC(c2cccc(Br)c2)c2cc3c(cc2N1)CCC3 (stereo not given),63.9 µM (inactive)
23,O=C(Nc1nc(-c2ccccc2)cs1)c1ccc(N2CCOCC2)c([N+](=O)[O-])c1,> 80 µM (inactive)
24,Cc1c(C(=O)OCc2ccccc2)[nH]c2c1C(=O)CC(c1ccco1)C2 (stereo not given),> 80 µM (inactive)
25,COc1ccc(CNC(=O)c2c(C)oc3c2C(=O)c2ccccc2C3=O)cc1,8.08 µM

row,Structure (SMILES),IC50
1,Cc1ccc(C(=O)Nc2cc3ccccc3oc2=O)cc1,0.32 µM
2,CCOC(=O)c1[nH]c(C)c(C(=O)c2cc(F)ccc2F)c1C,> 80 µM (inactive)
3,O=C(N/N=C\c1c(O)ccc2ccccc12)c1cncc(Br)c1,4.01 µM
4,CCOC(=O)c1ccccc1NC(=O)Cn1c(-c2nonc2N)nc2ccccc21,> 80 µM (inactive)
5,C=CCOC(=O)c1[nH]c2c(c1C)C(=O)CC(c1ccco1)C2 (stereo not given),> 80 µM (inactive)
6,CC(=O)NC(c1ccc(C(C)C)cc1)c1ccc2cccnc2c1O (stereo not given),3.06 µM
7,C=CC[C@@H](CC/C=C/C=C/CC/C=C\[C@@H]1CSC([C@@H]2C[C@@H]2C)=N1)OC,50.8 µM (inactive)
8,CCOc1ccc(N/C(N)=N/c2nc(CSc3nnc(C)s3)cc(=O)[nH]2)cc1,> 80 µM (inactive)
9,CCc1cc2c(=O)nc3n(c2s1)Cc1ccccc1/C3=C(/O)c1cccc([N+](=O)[O-])c1,> 80 µM (inactive)
10,Cc1cc(NC(=O)COC(=O)c2ccc(S(=O)(=O)N3CCCc4ccccc43)cc2)no1,> 80 µM (inactive)
11,COc1cccc(/C=N/Nc2ncnc3scc(-c4ccccc4)c23)c1O,1.26 µM
12,CN[C@H]1CCc2cc(OC)c(OC)c(OC)c2-c2ccc(OC)c(=O)cc21,> 80 µM (inactive)
13,COc1ccc(NC(=O)/C(Cl)=C(/Cl)S(=O)Cc2ccccc2Cl)cn1 (stereo not given),0.64 µM
14,CC1=NNC(=O)/C1=C\c1cn(-c2ccccc2)nc1-c1ccc(Cl)cc1,1.13 µM
15,Cc1ccnc2c1ccc1c(C)ccnc12,2.42 µM
16,COc1ccc(-n2cc(-c3ccc(C)cc3)[n+]3c2SCC3)cc1,> 80 µM (inactive)
17,C=C(C)C(=O)O[C@H]1C/C(C)=C\C(=O)/C=C(\C)[C@H](O)[C@@H]2OC(=O)C(=C)[C@@H]21,2.06 µM
18,Cn1nc([N+](=O)[O-])nc1Sc1nnc(-c2ccccc2)o1,7.97 µM
19,CCCCCCCCCCn1c2c(c(=N)c3c1CCC3)CCC2,5.17 µM
20,Cc1ccc2c(c1)COc1c3ccc(C(=O)O)cc3nn1-2,> 80 µM (inactive)
21,O=C(N/N=C\c1c(O)ccc2ccccc12)c1ccc(S(=O)(=O)N2CCCCC2)cc1,0.98 µM
22,CC(=O)O[C@H]1C(=O)[C@@]2(C)[C@H]([C@H](OC(=O)c3ccccc3)[C@]3(O)C[C@H](OC(=O)[C@H](O)[C@@H](NC(=O)c4ccccc4)c4ccccc4)C(C)=C1C3(C)C)[C@]1(OC(C)=O)CO[C@@H]1C[C@@H]2O,11 µM
23,COc1ccccc1NC(=O)c1cnc(Nc2ccccc2OC)c2ccccc12,> 80 µM (inactive)
24,CS(=O)(=O)c1ccc(Sc2nc3ccccc3s2)c([N+](=O)[O-])c1,0.89 µM
25,CCOc1cc(C#N)c(NC(=O)c2cccnc2)cc1OCC,> 80 µM (inactive)

# Source: PubChem BioAssay AID489035 (Sanford-Burnham Center for Chemical Genomics, 2010)
